{"source": "patent US11072592B2", "about": "“Small molecules that enable cartilage rejuvenation” (The Regents of the University of California, priority 2015, dated 2021)", "key": {"chondrocyte cultures": {"tested_on": "chondrocyte cultures", "assay": "Toxicity in chondrocyte cultures", "type": "cell-based", "experimental": "In a clinical setting, treatment with exogenous growth factors would present a difficult and expensive strategy. To address this, our group designed a high throughput screen to identify small molecule modulators of chondrogenic differentiation based on the prevention of the hypertrophy-associated marker collagen X (COLX). […] Importantly, the stimulatory effect of CRMs on p-STAT3 and c-MYC was reversible; protein levels of both p-STAT-3 and c-MYC decreased 48 hours after CRM-398 or -423 withdrawal (data not shown). Identification of such compounds can not only allow us to control differentiation of chondrocytes, but also manipulate the expression of STAT3 and c-MYC to achieve rejuvenation of adult chondrocytes. CRM-398 and -423 can be tested in parallel with LIF and their effects on adult articular chondrocyte activation can be assessed as described herein."}, "[1]": {"tested_on": "human adult articular chondrocytes", "assay": "Cellular metabolism (Seahorse ECAR and OCR), human adult articular chondrocytes", "type": "cell-based", "experimental": "The mitochondrial assay cellular oxygen consumption and mitochondrial function was carried out to measure basal respiration using XF24 instrument (Seahorse Biosciences) according to manufacturer instructions. Tested cells (100,000 cells per well) we plated into 24-well test plates 48 hours prior to experimentation. Oxygen consumption rates and extracellular acidification rates were measured every 10 minutes for up to 60 minutes (Rate 1-6)."}, "BMPR1B+ chondrocytes": {"tested_on": "BMPR1B+ chondrocytes", "assay": "Retention of BMPR1B+ chondrocytes in culture (flow cytometry)", "type": "cell-based, pig", "experimental": "FIG. 35. RCGD 423 Preserves BMPR1B+ Chondrocytes in Culture. Adult pig chondrocytes were cultured in the presence of various cytokines or RCGD 423 and the number of cells expressing BMPR1B were quantitated using flow cytometry. Know mitogens for cartilage, including PDGF-BB and FGF2, promoted dramatic loss of BMPR1B^+ cells. In contrast, RCGD 423 and LIF acted to maintain cells with the BMPR1B+ phenotype.\nBMPR1B+LIFR+ human adult articular chondrocytes were sorted using FACS and deposited in 96-well culture plates at density 10,000 cells per well in DMEM/F12 culture medium (Invitrogen) supplemented with 1% FBS. Growth factors or RCGD 423 were added at the time of plating. After 1, 3 and 7 days cultures were re-analyzed with FACS using an antibody against BMPR1B."}, "[2]": {"tested_on": "pig articular cartilage biopsy punches with defects", "assay": "Repair of defects in adult pig articular cartilage biopsy punches in vitro", "type": "cell-based", "conditions": "Matrigel with microspheres, 5 weeks of culture", "experimental": "(§1) FIGS. 31A-31D. […] (FIG. 31A) Experiments were conducted to test the tissue reparative function of compounds disclosed herein. FIG. 31A depicts histograms of amounts of glycosaminoglycans (GAGs) and collagen 2 observed under control conditions and after administration of RCGD 423. (FIG. 31B) The duration of the effects elicited by RCGD 423 was determined by applying the drug for 24 hours and then washing it out. Protein levels of pSTAT3 and MYC were determined at the indicated time points after wash out; histone H3 was used as a loading control. (FIG. 31C) Protein levels of MYC and pSTAT3 in adult pig articular chondrocytes were used to determine the time frame in which release of RCGD 423 from PLGA microspheres reaches efficacious levels. Supernatant from drug-loaded PLGA microspheres was harvested at the indicated intervals and applied to pig chondrocytes. Histone H3 was used as a loading control. (FIG. 31D) Repair in a tissue context was assessed by removing small explants from a biopsy punch of adult pig articular cartilage. Matrigel with or without RCGD 423-loaded microspheres was applied to the defects. Safranin O staining was performed on sections of explants following 5 weeks of culture; border of defect and intact tissue is shown.\n(§2) We also tested whether RCGD 423 could initiate healing of small defects generated on the surface of intact articular cartilage. […]"}, "adult chondrocytes": {"tested_on": "adult chondrocytes", "assay": "Collagen 2 production by adult chondrocytes", "type": "cell-based", "conditions": "compared with control (DMSO)", "excerpt": "FIGS. 21A-21B. […] (FIG. 21A) cell sorting results for isotype (left), BMPR18^neg (middle), and BMPR18+ cells (right). (FIG. 21B) CRM-423 (right panel) stimulates collagen 2 product by adult chondrocytes compared with control (DMSO, left panel).\nCmpd 423 stimulates collagen 2 product by adult chondrocytes (FIG. 21B)."}, "pSTAT3 and MYC [3]": {"tested_on": "pSTAT3 and MYC", "assay": "Duration of pSTAT3/MYC induction after wash out or release from PLGA microspheres", "type": "cell-based, pig", "conditions": "drug applied 24 hours, then washed out", "experimental": "as §1, §2"}, "pSTAT3 and MYC [4]": {"tested_on": "pSTAT3 and MYC", "assay": "pSTAT3 and MYC in other cells/tissues", "type": "cell-based", "conditions": "embryonic stem cells and the heart; unpublished preliminary data", "excerpt": "Based on the functional properties elicited by RCGD 423, we propose that it (or compounds functionally similar to it) may represent core components of treatment regimens for articular cartilage injury."}, "[5]": {"tested_on": "human adult articular chondrocytes", "assay": "RNA-Seq of human adult articular chondrocytes", "type": "cell-based", "conditions": "n=7"}, "human fetal chondrocytes": {"tested_on": "human fetal chondrocytes", "assay": "Chondrocyte terminal differentiation (COLX expression, alkaline phosphatase) in human fetal chondrocytes", "type": "cell-based", "excerpt": "From a therapeutic and regulatory standpoint, small molecules represent a highly attractive modality for manipulating cell biology. To this end, we conducted a high throughput screen to discover small molecules that regulate chondrocyte differentiation. As a readout for the screen, we chose mice carrying a transgenic mCherry reporter (Maye et al., 2011) for expression of Col10a1 (COL10). COL10 expression, along with alkaline phosphatase (AP) levels, increases during later stages of chondrocyte differentiation, concomitant with withdrawal from the cell cycle. […] To conduct the screen, total limb cells were isolated from Col10a1-mCherry transgenic embryos and cultured in the presence of BMP-4, a driver of chondrocyte hypertrophy (Wu et al., 2013); 170,000 compounds were assayed for their ability to decrease the mCherry signal in live cells under these conditions (FIG. 27A). Out of this first dataset, 469 molecules were selected for confirmatory screening. This number was further reduced to 75 verified compounds that blocked increases in mCherry signal (FIG. 27B). Additional vetting led to the selection of Regulator of Cartilage Growth and Differentiation (RCGD) 423 as the primary compound for continued characterization. The ability of RCGD 423 to inhibit COL10 expression in human cells was confirmed, and AP activity was employed as a supplemental readout of chondrocyte differentiation.\nCells were fixed with 3.7% formaldehyde and stained for alkaline phosphatase activity with SigmaFast 5-bromo-4-chloro-3-indolyl phosphate/4-nitro blue tetrazolium (BCIP/NBT) (Sigma Aldrich, St. Louis, Mo.) according to the manufacturer's protocol."}}}
{"smiles": "Brc1ccc(Nc2nc(-c3ccccc3)cs2)cc1", "note": "[RCGD 423, N-(4-Bromophenyl)-4-phenyl-1,3-thiazol-2-amine]", "values": [{"measurement": "toxicity in chondrocyte cultures", "setting": "chondrocyte cultures", "result": "no toxicity"}, {"measurement": "cellular respiration", "setting": "[1]", "result": "increased"}, {"measurement": "levels of glycolysis", "setting": "[1]", "result": "unchanged"}, {"measurement": "BMPR1B+ chondrocytes in culture", "setting": "BMPR1B+ chondrocytes", "result": "helped maintain"}, {"measurement": "repair / remodeling of cartilage defects", "setting": "[2]", "result": "promotes cartilage repair"}, {"measurement": "collagen 2 production by adult chondrocytes", "setting": "adult chondrocytes", "result": "stimulates"}, {"measurement": "time after drug removal at which increases in pSTAT3 and MYC are observed", "setting": "pSTAT3 and MYC [3]", "result": "up to 7 days"}, {"measurement": "pSTAT3 and MYC proteins in other cells/tissues", "setting": "pSTAT3 and MYC [4]", "result": "promotes increases"}, {"measurement": "enriched transcripts (increased more than 1.5-fold in 4/7 replicates)", "setting": "[5]", "result": "1,244"}, {"measurement": "COL10 expression in human cells", "setting": "human fetal chondrocytes", "result": "inhibit"}, {"measurement": "alkaline phosphatase (AP) levels", "setting": "human fetal chondrocytes; fetal cartilage treated with BMP-4", "result": "significantly reduced"}, {"measurement": "terminal differentiation (COLX expression)", "setting": "human fetal chondrocytes; human fetal chondrocytes, 1 μM", "result": "significant inhibition"}]}
